# Test results from patent US20220202852A1, “METHODS AND COMPOSITIONS OF AQUEOUS HYPOBROMOUS ACID FOR THE TREATMENT AND PREVENTION OF INFLAMMATORY CONDITIONS” (Briotech, Inc., priority 2020, published 2022).
# Columns and labels:
# [1] = system: spores of Bacillus subtilis; experiment: Inactivation of resistant spores by HOBr/HOCl solutions; format: cell-based; conditions: 20 seconds contact
# Protocol: Hypobromous acid (HOBr) was prepared by the exposure of a slight excess of one equivalent of aqueous bromide ion (as NaBr) to one equivalent of HOCl. This solution was prepared fresh for use in tests for inactivation of resistant microbial organisms.
# Exposures as brief as 20 seconds to HOBr at approximately 25 ppm were sufficient to produce LRV of 6. In the same experimental protocol HOC1 at 230 ppm was required to produce 6 LRV in the same contact time. As soon as the HOCl concentration used was below 230 ppm, the LRVs fell into the 2-4 range.
# E. coli = experiment: Comparative antimicrobial efficacy of HOBr and HOCl solutions vs suspensions; format: cell-based; conditions: 20 s exposure
# Protocol: (§1) FIGS. 3A-3C compare antimicrobial efficacy comparison of HOBr and HOCl solutions: E. coli, 20 s exposure (3A); S. aureus, 40 s exposure (3B); and A. niger, 40 s exposure (3C). HOBr=diagonal lines; HOCl=stippling.
# (§2) Preparations of HOCl stored at 22° C. for several weeks and freshly prepared HOBr solutions were compared in their antimicrobial properties versus suspensions of E. coli, S. aureus, and A. niger (see FIG. 3).
# S. aureus = experiment: as above; format: cell-based; conditions: 40 s exposure
# Protocol: as §1, §2
# [2] = system: human skin and mucous membranes, including conjunctiva; experiment: Safety of topically applied freshly prepared aqueous HOBr; format: in vivo; conditions: HOBr solution made from HOCl containing 200 ppm of Cl plus an equivalent of NaBr
# Text: A solution of HOBr was made by addition of an equivalent of NaBr to a solution of HOCl containing 200 ppm of Cl.
# A. niger = experiment: Comparative antimicrobial efficacy of HOBr and HOCl solutions vs suspensions; format: cell-based; conditions: all concentrations tested, 40 s exposure
# Protocol: as §1, §2
# [3] = lower concentrations (<115 ppm)
SMILES,"LRV, inactivation of Bacillus subtilis spores ([1]; approximately 25 ppm)","inactivating E. coli, comparative efficacy (E. coli; high concentrations (≥115 ppm))","inactivating E. coli, comparative efficacy (E. coli; [3])","inactivating S. aureus, comparative efficacy (S. aureus; high concentrations (≥115 ppm))","inactivating S. aureus, comparative efficacy (S. aureus; [3])",adverse effects on epithelial surfaces after topical application [2],"LRV, inactivation of Bacillus subtilis spores ([1]; 230 ppm)","LRV, inactivation of Bacillus subtilis spores ([1]; concentration below 230 ppm)","efficacy against A. niger, comparative (A. niger)"
"OBr [HOBr, Hypobromous acid]",6,equally effective,markedly more effective than HOCl,equally effective,markedly more effective than HOCl,without any indication of adverse effects,,,
"OCl [HOCl, hypochlorous acid]",no detectable effect,equally effective,,equally effective,,,6,2-4,equally or more effective than HOBr
